Assay results as given in publication PMC9468151, “Identification of a binding site on soluble RANKL that can be targeted to inhibit soluble RANK-RANKL interactions and treat osteoporosis” (Nature Communications, 2022).
Where “and” joins values, the source holds several entries; their conditions need not be identical. Equal values may be shown once.

T1: sRANKL (Rattus norvegicus, UniProt Q9ESE2, D175N)
T1 construct: (1) sRANKL (rat 159-318 aa); His6-sumo (N, cleaved yes); made in house; host or cells: Escherichia coli BL21 (DE3)
T1 sequence (Q9ESE2 159-318 D175N): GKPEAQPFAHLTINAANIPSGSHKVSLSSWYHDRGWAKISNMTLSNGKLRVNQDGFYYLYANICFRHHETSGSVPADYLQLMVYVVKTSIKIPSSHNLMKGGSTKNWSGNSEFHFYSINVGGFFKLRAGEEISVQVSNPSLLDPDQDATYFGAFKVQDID

T2: recombinant RANK (mouse extracellular RANK fragment, residues 26-210) (mouse, UniProt O35305 26-210)
T2 construct: RANK (TNFRSF11A), mouse, extracellular fragment, residues 26-210, cloned into pET28a between Nde I and Xho I; In the functional rows the RANK that was present is the endogenous receptor on mouse bone marrow cells; also called soluble RANK
T2 sequence (looked up): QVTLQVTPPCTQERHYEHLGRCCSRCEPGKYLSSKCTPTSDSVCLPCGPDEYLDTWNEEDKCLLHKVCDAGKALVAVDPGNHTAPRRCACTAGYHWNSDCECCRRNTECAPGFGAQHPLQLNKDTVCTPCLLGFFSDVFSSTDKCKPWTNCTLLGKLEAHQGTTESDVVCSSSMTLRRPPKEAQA

B1: GST tag recombinant rat sRANKL (GST-sRANKL) (ligand, UniProt Q9ESE2 160-318, looked up)
chain: KPEAQPFAHLTINAADIPSGSHKVSLSSWYHDRGWAKISNMTLSNGKLRVNQDGFYYLYANICFRHHETSGSVPADYLQLMVYVVKTSIKIPSSHNLMKGGSTKNWSGNSEFHFYSINVGGFFKLRAGEEISVQVSNPSLLDPDQDATYFGAFKVQDID
notes: also called soluble RANKL; source: E. coli BL21 (DE3), purified (glutathione sepharose, Superdex 200 Increase)
B2: label-free rat sRANKL (wild type) (ligand, UniProt Q9ESE2 160-318, looked up)
chain: B1 chain
notes: RANKL, rat, soluble form sRANKL; also called WT sRANKL; soluble RANKL; source: E. coli BL21 (DE3), purified (Ni-NTA, released by Ulp1, HiLoad Superdex 200); not shown: His6, N-terminal, cleaved; SUMO, N-terminal, cleaved

Columns and labels:
[1] = test system: RAW264.7 cells; assay: In vitro cytotoxicity assay (MTT); format: cell-based, mouse; details: RAW264.7, MTT
Protocol: MTT assay was used to determine cell viability. RAW264.7 cells in the logarithmic growth phase were cultured in 96-well plates with 6 × 10^3 cells in each well and incubated for 24 h. The surviving cells were then determined by MTT method. […] Cell growth inhibition ratio was calculated as follows: Cellgrowthinhibitionratio%=ODvehicle−ODtreaed/ODvehicle×100%
Cell cytotoxicity CC50 value were conducted by using Nonlinear regression (curve fit) analytic procedure in GraphPad Prism 8.

[2] = molecular target: T1, sRANKL; assay: Surface plasmon resonance (SPR) assay; format: binding; details: immobilized sRANKL, 25 °C
Protocol: A ProteOn XPR36TM SPR instrument (BioRad Hercules, CA) was used for carrying out SPR assays. sRANKL protein in PBS buffer, pH 7.4, was diluted to 20 nM in 10 mM sodium acetate buffer, pH 5.5 and immobilized in parallelflow channels of a the EDAC/Sulfo-NHS activated surface of a GLH biosensor chip (Bio-Rad) with an amine coupling kit (Bio-Rad). The surface was blocked with 1 M ethanolamine. The final immobilization level for sRANKL was approximately 14,000 RU. A blank immobilization channel in the same GLH biosensor chip was also activated with EDAC/Sulfo-NHS and blocked with 1 M ethanolamine to use as a reference.
Biosensor binding experiments were conducted in filtered and degassed running buffer (PBS containing 0.005% Tween-20, pH 7.4) at 25 °C. Compounds was dissolved in 100% DMSO in appropriate different series concentrations of stock solutions. Before detecting, compounds were diluted in six or five concentrations with running buffer and ensured that the content of DMSO contained in each detected concentration was consistent. Compounds in different concentrations were injected simultaneously at a flow rate at […] for 180 s and 120 s for the association phase, followed by 180 s for the disassociation. Following the compound injection, the chip surface was regenerated with 40 s pulses of 0.85% H3PO4 and running buffer.
ProtedOn Manager 2.0. was used for data analysis. Each set of sensorgrams was globally analyzed using the 1:1 Langmuir binding model to obtain the kinetic rate constants (Kon and Koff). Global kinetic rate constants (ka and kd) were derived for each reaction, and the equilibrium dissociation constant, KD, was calculated using the equation KD = kd/ka.

[3] = test system: sRANKL induced osteoclast differentiation; assay: In vitro anti-osteoclastogenesis activity determination (TRAP staining); format: cell-based, mouse; set-up: key to inhibition of osteoclastogenesis, dose-response (fig. S2a): % inhibition = 100 − (treated−unstimulated)/(untreated−unstimulated)×100; details: for inhibition of osteoclastogenesis, dose-response (fig. S2a): three replicate columns
Outline: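 IC50 came from a nonlinear curve fit of percent inhibition, computed from TRAP-positive osteoclast counts against unstimulated and untreated wells. Cells were murine BMMs with M-CSF (10 ng/mL), exposed 5 days to 100 ng/mL sRANKL and nine compound levels, re-dosed every 2 days, in triplicate.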

[4] = molecular target: T2, recombinant RANK (mouse extracellular …); assay: pull-down; 120 ug GST-sRANKL on the resin in PBS with 1% BSA, room temperature; compounds (50 uM) or 0.8% DMSO control for 30 min, then 25 ug RANK for 20 min; SDS-PAGE, Coomassie blue; details: both partners purified
[5] = molecular target: the molecule itself; assay: cross-linking; cross-link assay of sRANKL with S3-15; methods not shown

Kd [2] | binding result [4] | Molecule | CC50 [1] | IC50 ([3]; BMMs, M-CSF + 100 ng/mL sRANKL, 5 days, TRAP staining, read-out: OC IC50 (anti-osteoclastogenesis activity)) | inhibition of osteoclastogenesis, dose-response (fig. S2a) ([3]; conc. 0.0023464 μM) | inhibition of osteoclastogenesis, dose-response (fig. S2a) ([3]; conc. 0.00774313 μM) | inhibition of osteoclastogenesis, dose-response (fig. S2a) ([3]; conc. 0.0255523 μM) | inhibition of osteoclastogenesis, dose-response (fig. S2a) ([3]; conc. 0.0843226 μM) | inhibition of osteoclastogenesis, dose-response (fig. S2a) ([3]; conc. 0.278265 μM) | inhibition of osteoclastogenesis, dose-response (fig. S2a) ([3]; conc. 0.918274 μM) | inhibition of osteoclastogenesis, dose-response (fig. S2a) ([3]; conc. 3.0303 μM) | inhibition of osteoclastogenesis, dose-response (fig. S2a) ([3]; conc. 10 μM) | inhibition of osteoclastogenesis, dose-response (fig. S2a) ([3]; conc. 33 μM) | stoichiometry N [5]
33.7 µM | – | CCOC(=O)c1sc(NC(=O)C(=NNc2cccc(C(=O)O)c2)C(C)=O)nc1C [S3-03] | 33.9 µM | 360 nM | 4.313 and 4.012 and -1.404 | 4.012 and 1.304 and -0.5015 | 11.5346 and 24.4734 and 19.659 | 33.8014 and 30.1906 and 37.1113 | 47.6429 and 50.0502 and 47.342 | 51.8556 and 56.9709 and 59.3781 | 77.4323 and 79.5386 and 69.007 | 99.0973 and 98.7964 (2×) | 100 | –
33.7 µM | – | CC(=O)C(=NNc1ccccc1C(=O)O)C(=O)Nc1nccs1 [S3-09] | > 100 µM | – | -0.7659 (2×) and 2.516 | 0.2188 and -0.1094 and 1.86 | 6.455 and 3.501 and 2.845 | 10.3939 and 2.845 and 7.44 | 45.186 and 26.8053 and 32.3851 | 57.9869 (2×) and 48.7965 | 69.1466 and 68.8184 and 61.9256 | 80.6346 and 77.0241 and 79.6499 | 100 | –
– | binds | B1 | – | – | – | – | – | – | – | – | – | – | – | –
– | – | B2 | – | – | – | – | – | – | – | – | – | – | – | 3
